Source: patent publication US20240150368A1, “ULK INHIBITORS AND METHODS OF USE THEREOF” (Deciphera Pharmaceuticals, LLC, priority 2022, published 2024)

Experiments:
ULK2 kinase = target: T1, ULK2 kinase (Homo sapiens, UniProt Q8IYT8); test: Biochemical assay for ULK2 (coupled pyruvate kinase/lactate dehydrogenase assay); conditions: 1 mM ATP, 1 nM ULK2; read-out: ULK2 (inhibition of biochemical activity), IC50
T1 construct: (residues 1-306 with N-terminal GST and His tag; ID NO: 2); purchased Signal Chem U02-11G
T1 sequence (Q8IYT8 with tags, fused parts or gaps): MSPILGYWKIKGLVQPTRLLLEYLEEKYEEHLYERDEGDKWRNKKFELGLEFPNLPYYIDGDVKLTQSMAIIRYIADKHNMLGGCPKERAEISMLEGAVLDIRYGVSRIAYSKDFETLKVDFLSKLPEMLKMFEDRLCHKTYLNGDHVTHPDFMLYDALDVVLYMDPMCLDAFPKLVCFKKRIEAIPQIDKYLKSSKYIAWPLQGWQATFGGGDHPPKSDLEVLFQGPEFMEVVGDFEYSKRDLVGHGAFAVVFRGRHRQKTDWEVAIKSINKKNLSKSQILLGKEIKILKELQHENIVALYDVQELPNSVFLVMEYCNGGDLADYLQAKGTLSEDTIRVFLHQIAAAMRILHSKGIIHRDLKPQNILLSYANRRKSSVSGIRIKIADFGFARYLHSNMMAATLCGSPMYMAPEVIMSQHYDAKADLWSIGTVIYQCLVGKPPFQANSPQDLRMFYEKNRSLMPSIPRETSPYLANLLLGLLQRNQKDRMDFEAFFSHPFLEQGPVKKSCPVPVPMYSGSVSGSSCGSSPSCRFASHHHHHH
In short: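 Continuous PK/LDH-coupled NADH oxidation assay (A340) with 1 nM ULK2, 200 μM ULKtide and 1 mM ATP in Tris pH 7.5, 15 mM MgCl2, 1% DMSO, read 6 h at 30° C. Rates from the 2-3 h window converted to percent inhibition against no-compound and known-inhibitor controls; IC50 by four-parameter sigmoidal fit.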

ULK1 kinase = target: T2, ULK1 kinase (Homo sapiens, UniProt O75385, E37A/K38A); test: Biochemical assay for ULK1 (coupled pyruvate kinase/lactate dehydrogenase assay); conditions: 1 mM ATP, 0.1 nM ULK1; read-out: ULK1 (inhibition of biochemical activity), IC50
T2 construct: (residues 1-283; ID NO: 1); purchased Beryllium
T2 sequence (O75385 1-283 E37A/K38A): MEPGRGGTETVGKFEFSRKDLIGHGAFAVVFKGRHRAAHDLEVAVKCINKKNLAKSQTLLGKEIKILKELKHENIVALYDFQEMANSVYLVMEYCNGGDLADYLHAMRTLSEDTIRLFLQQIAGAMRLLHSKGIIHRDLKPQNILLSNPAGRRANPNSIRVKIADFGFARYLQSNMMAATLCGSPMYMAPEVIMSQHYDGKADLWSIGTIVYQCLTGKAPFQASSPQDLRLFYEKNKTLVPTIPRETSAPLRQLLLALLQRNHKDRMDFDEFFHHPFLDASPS
In short: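 IC50 values were fitted to percent inhibition, normalised with no-compound and known-inhibitor controls, using rates from 2–3 h of a 6 h read at 30 °C. ADP was coupled through pyruvate kinase/lactate dehydrogenase to NADH loss at 340 nm.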

[1] = system: ULK kinase substrate ATG13 (pS318-ATG13) in A549 (KRAS mutant) cells; test: pATG13 levels of mutant KRas A549 cells after treatment with ULK inhibitors in combination with trametinib (ELISA); format: cell-based, human
In short: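 A549 cells grown overnight were treated with a test-compound dose response plus trametinib at 250 nM final (or DMSO) overnight at 37° C. Lysates were assayed by total-ATG13 capture and biotinylated pS318-ATG13 detection ELISA (450 nm minus 540 nm background); % phosphorylation versus controls gave IC50 values.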

Compound	IC50 (ULK2 kinase)	IC50 (ULK1 kinase)	IC50 [1]
CC/C(Nc1cnn(C2CCN(C(C)C)CC2)c1)=C1/C(=O)Nc2ccc(C(=O)NC[C@H]3CCCO3)cc21 [Example 1, (R,Z)-3-(1-((1-(1-isopropylpiperidin-4-yl)-1H-pyrazol-4-yl)amino)propylidene)-2-oxo-N-((tetrahydrofuran-2-yl)methyl)indoline-5-carboxamide]	10 to 100 nM	≤ 10 nM	100 to 300 nM
CC/C(Nc1ccc(N2C[C@H]3CN(C)C[C@H]3C2)cc1)=C1/C(=O)Nc2ccc(C(=O)NCC(C)C)cc21 [Example 63]	10 to 100 nM	10 to 100 nM	≤ 100 nM
CC/C(Nc1ccc(N2C[C@H]3CN(C)C[C@H]3C2)cc1)=C1/C(=O)Nc2ccc(C(=O)NC[C@H]3CCCO3)cc21 [Example 64]	10 to 100 nM	10 to 100 nM	≤ 100 nM
CC/C(Nc1ccc(N2CC3(CN(C)C3)C2)cc1)=C1/C(=O)Nc2ccc(C(=O)NCC(C)C)cc21 [Example 65]	10 to 100 nM	≤ 10 nM	≤ 100 nM
CC/C(Nc1ccc(N2CC3(CN(C)C3)C2)cc1)=C1/C(=O)Nc2ccc(C(=O)NC[C@H]3CCCO3)cc21 [Example 66]	10 to 100 nM	≤ 10 nM	≤ 100 nM
CC/C(Nc1ccc(N2CC3CC(C2)N3C)cc1)=C1/C(=O)Nc2ccc(C(=O)NCC(C)C)cc21 [Example 67]	10 to 100 nM	≤ 10 nM	≤ 100 nM
CC/C(Nc1ccc(N2CC3CC(C2)N3C)cc1)=C1/C(=O)Nc2ccc(C(=O)NC[C@H]3CCCO3)cc21 [Example 68]	10 to 100 nM	≤ 10 nM	≤ 100 nM
CC/C(Nc1ccc(N2CC3CC2CN3C)cc1)=C1/C(=O)Nc2ccc(C(=O)NCC(C)C)cc21 (stereo not drawn) [Example 69]	10 to 100 nM	≤ 10 nM	≤ 100 nM
CC/C(Nc1ccc(N2CC3CC2CN3C)cc1)=C1/C(=O)Nc2ccc(C(=O)NC[C@H]3CCCO3)cc21 (stereo partly drawn) [Example 70]	10 to 100 nM	≤ 10 nM	≤ 100 nM
CC/C(Nc1ccc(N2CC3CC2CN3C)cc1)=C1/C(=O)Nc2ccc(C(=O)NCC(F)(F)F)cc21 (stereo not drawn) [Example 71]	10 to 100 nM	≤ 10 nM	≤ 100 nM
CC/C(Nc1ccc(N2CCN(C)CC2)nc1)=C1/C(=O)Nc2ccc(C(=O)NCC(F)(F)F)cc21 [Example 74]	100 to 500 nM	10 to 100 nM	100 to 300 nM
CC/C(Nc1ccc(N2CCN(C)CC2)cn1)=C1/C(=O)Nc2ccc(C(=O)NCC(F)(F)F)cc21 [Example 75]	≤ 10 nM	≤ 10 nM	100 to 300 nM
CC/C(Nc1cnn(C)c1)=C1/C(=O)Nc2ccc(C(=O)NCC(F)(F)F)cc21 [Example 77]	10 to 100 nM	≤ 10 nM	100 to 300 nM
CC/C(Nc1ccc(-c2nc(C)no2)cc1)=C1/C(=O)Nc2ccc(C(=O)NCC(F)(F)F)cc21 [Example 78]	10 to 100 nM	10 to 100 nM	300 to 600 nM
CC/C(Nc1ccc(-c2cn(C)nn2)cc1)=C1/C(=O)Nc2ccc(C(=O)NCC(F)(F)F)cc21 [Example 79]	10 to 100 nM	10 to 100 nM	300 to 600 nM
CC/C(Nc1cnn(C2CCN(C(C)C)CC2)c1)=C1/C(=O)Nc2ccc(C(=O)NC[C@H]3CC(F)(F)CO3)cc21 [Example 80]	≤ 10 nM	≤ 10 nM	≤ 100 nM
CC/C(Nc1cnn(C2CCN(C(C)C)CC2)c1)=C1/C(=O)Nc2ccc(C(=O)NCCOC(F)(F)F)cc21 [Example 82]	≤ 10 nM	≤ 10 nM	300 to 600 nM
CC/C(Nc1cnn(C2CCN(C(C)C)CC2)c1)=C1/C(=O)Nc2ccc(C(=O)NC[C@H]3CCCCO3)cc21 [Example 83]	10 to 100 nM	≤ 10 nM	≤ 100 nM
CC/C(Nc1cnn(C2CC3(C2)CN(C)C3)c1)=C1/C(=O)Nc2ccc(C(=O)NCC(F)(F)F)cc21 [Example 84]	≤ 10 nM	≤ 10 nM	> 600 nM
CC/C(Nc1ccc(N2CC3(COC3)C2)cc1)=C1/C(=O)Nc2ccc(C(=O)NCC(F)(F)F)cc21 [Example 85]	10 to 100 nM	10 to 100 nM	300 to 600 nM
CC/C(Nc1cnn(C2CN(C)C2)c1)=C1/C(=O)Nc2ccc(C(=O)NCC(F)(F)F)cc21 [Example 86]	10 to 100 nM	≤ 10 nM	300 to 600 nM
CC/C(Nc1cnn(C2CN(C)C2)c1)=C1/C(=O)Nc2ccc(C(=O)NCC(C)C)cc21 [Example 87]	10 to 100 nM	10 to 100 nM	300 to 600 nM
CC/C(Nc1cnn(C2CN(C3CCC3)C2)c1)=C1/C(=O)Nc2ccc(C(=O)NC[C@H]3CCCO3)cc21 [Example 88]	10 to 100 nM	≤ 10 nM	100 to 300 nM
CC/C(Nc1cnn(C2CN(C)C2)c1)=C1/C(=O)Nc2ccc(C(=O)NCCOC)cc21 [Example 89]	100 to 500 nM	10 to 100 nM	> 600 nM
CC/C(Nc1cnn(C2CN(CC)C2)c1)=C1/C(=O)Nc2ccc(C(=O)NC[C@H]3CCCO3)cc21 [Example 90]	10 to 100 nM	≤ 10 nM	300 to 600 nM
CC/C(Nc1cnn(C2CN(C(C)C)C2)c1)=C1/C(=O)Nc2ccc(C(=O)NC[C@H]3CCCO3)cc21 [Example 91]	10 to 100 nM	≤ 10 nM	100 to 300 nM
CC/C(Nc1ccc(N2CCN(C(C)C)CC2)cn1)=C1/C(=O)Nc2cc(F)c(C(=O)NCC(F)(F)F)cc21 [Example 92]	100 to 500 nM	100 to 500 nM	≤ 100 nM
